Entries after “also recorded” stand apart in the source; their conditions may differ. Blank lines part the entries; values can stand above or below the compound they belong to.
What was measured:
human IAPP = target: T1, human IAPP (Homo sapiens, UniProt P10997); experiment: Fluorescence detected thioflavin-T assay of the time course of amyloid formation; format: biochemical; settings: for effect on islet amyloid formation (thioflavin-T time course): compound 20 parts, human IAPP 1 part, example in present tense; for inhibition of amyloid formation by human IAPP (amylin): 20 to 1 ratio of NSAID to human IAPP, pH 7.4, 25° C.
T1 construct: Mature, fully processed, Amylin is 37 residues in length, contains a disulfide bond between residues 2 and 7; made in house; host or cells: chemical solid-phase peptide synthesis (Fmoc), no expression host
T1 sequence (P10997 34-70 limits assumed): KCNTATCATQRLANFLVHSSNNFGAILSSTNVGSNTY
Experimental: Peptides were first dissolved in 100% hexafluoroisopropanol (HFIP) at a concentration 1.6 mM and then filtered to remove any preformed amyloid aggregates. For thioflavin-T fluorescence assays, aliquots were lyophilized and redissolved in pH 7.4, 20 mM Tris-HCl buffer at the desired concentration. Aspirin and Ketoprofen were prepared in 100% dimethyl sulfoxide (DMSO).
Solutions were prepared by adding pH 7.4, 20 mM Tris buffer and thioflavin-T to lyophilized dry peptides for a final peptide concentration of […]. For the studies of Aspirin and Ketoprofen, 0.25% DMSO was present in the solution. Measurements were made at 25° C. using a Beckman Coulter DTX880 plate reader without stirring. An excitation filter of 430 nm and an emission filter of 485 nm were used. To test disaggregate activity of Aspirin, peptide was first incubated in low-binding 96-wells plate and monitored by plate reader to ensure the formation of amyloid fibrils.
A mixture of flurbiprofen (1-20 parts) and human IAPP (1 part) was monitored by fluorescence detected thioflavin-T assays. The assays monitored the time course of amyloid formation (amount vs time) in the presence and absence of flurbiprofen.
A mixture of OH-flurbiprofen and human IAPP were monitored by fluorescence detected thioflavin-T assays. Three different concentrations (1:1 ratio, 1:10 ratio and 1:20 ratio of IAPP to OH-flurbiprofen) were tested against human IAPP without any added OH-flurbiprofen. The assays monitored the time course of amyloid formation (amount vs time) in the presence and absence of a flurbiprofen derivative.
Three different mixtures of NSAIDs (20 parts) and human IAPP (1 parts) were compared to each other and human IAPP alone by fluorescence detected thioflavin-T assays. The assays monitored the time course of amyloid formation (amount vs time) in the presence and absence of aspirin, naproxen and flurbiprofen.

rat INS-1 beta-cells = experiment: AlamarBlue cell viability of beta-cells given aliquots of the IAPP amyloid time course; format: cell-based
Experimental: FIG. 5. […] (A) A thioflavin-T monitored time course of amyloid formation in the presence and absence of flurbiprofen. […] 20 mM Tris-HCl buffer with 0.25% DMSO was used as the control.
The presence of toxic intermediates is reduced when amyloid formation is accelerated by use of flurbiprofen or a flurbiprofen derivative. A thioflavin-T monitored time course of amyloid formation by human IAPP was conducted in the presence and absence of flurbiprofen. Aliquots were removed at various time points and applied to rat INS-1 beta-cells; at thirty minutes, at 12 hours, at 48 hours. Cell viability as judged by AlamarBlue assays. 20 mM Tris-HCl buffer with 0.25% DMSO was used as the control.

human IAPP (amylin) = target: T2, human IAPP (amylin) (Homo sapiens, UniProt P10997); experiment: Transmission electron microscopy of amyloid fibrils; format: biochemical
T2 construct: Mature, fully processed, Amylin is 37 residues in length, contains a disulfide bond between residues 2 and 7; made in house; host or cells: chemical solid-phase peptide synthesis (Fmoc), no expression host
T2 sequence (P10997 34-70 limits assumed): T1 sequence (P10997 34-70 limits assumed)
Experimental: TEM was performed at the Life Science Microscopy Center at Stony Brook University. Aliquots were removed from the same solutions that were used for the fluorescence measurements. 5 μL of peptide solution was placed on carbon-coated Formvar 300 mesh copper grid for one minute and then negatively stained with saturated uranyl acetate for another one minute.

[1] = target: T3, pre-formed human amylin amyloid fibrils (Homo sapiens, UniProt P10997); experiment: Disaggregation of pre-formed amylin amyloid fibrils (thioflavin-T and TEM); format: biochemical; settings: 20-fold excess added after amyloid formation was complete; up to 48 hours
T3 construct: Mature, fully processed, Amylin is 37 residues in length, contains a disulfide bond between residues 2 and 7; made in house; host or cells: chemical solid-phase peptide synthesis (Fmoc), no expression host
T3 sequence (P10997 34-70 limits assumed): T1 sequence (P10997 34-70 limits assumed)
Experimental: Solutions were prepared by adding pH 7.4, 20 mM Tris buffer and thioflavin-T to lyophilized dry peptides for a final peptide concentration of 16 M. For the studies of Aspirin and Ketoprofen, 0.25% DMSO was present in the solution. Measurements were made at 25° C. using a Beckman Coulter DTX880 plate reader without stirring. An excitation filter of 430 nm and an emission filter of 485 nm were used.

[2] = system: 3XL-IAPP mutant (F15L, F23L, Y37L human IAPP); experiment: Thioflavin-T assay of mutant human IAPP amyloid formation (3XL); format: biochemical; settings: WT human IAPP and mutant IAPP compared
Text: A mixture of flurbiprofen (20 parts) and human IAPP (1 part) was monitored by fluorescence detected thioflavin-T assays. The assays monitored the time course of amyloid formation (amount vs time) in the presence and absence of flurbiprofen. The effect of flurbiprofen in wild-type (WT) human IAPP, and in two mutants of human IAPP was monitored. In one mutant, all of the aromatic amino acids in human IAPP were replaced by […] human IAPP was examined. A second mutant in which […] human IAPP) was also tested.

[3] = Parallel biophysical and cell viability experiments on h-IAPP variants; format: cell-based
Experimental: Parallel biophysical and cell viability experiments were conducted using a range of conditions that alter the length of the lag phase. h-IAPP amyloid kinetics are concentration-dependent. Decreasing the peptide concentration leads to an increase in the length of the lag phase, while an increase in human-IAPP concentration leads to a shortening of the lag phase. The length of the lag phase can also be controlled by altering the temperature. Lower temperatures lead to a longer lag phase; the lag phase is 2-fold longer at 15° C. […] A set of rationally designed Ser-20 mutations were used. Ser-20 is located at a critical position in the h-IAPP sequence and modulates its aggregation kinetics. […] Toxicity and kinetics experiments were performed on the Ser-20 mutants. […] An human-IAPP triple mutant, 3×L-IAPP, in which Leu replaced the three aromatic residues (Phe-15, Phe=23 and Tyr-37) was tested. This mutant forms amyloid 9-fold more slowly than wild type human IAPP (Marek at al. 2007). […] The duration of toxicity for all the mutants and for all the conditions with human IAPP wild type correlated with the length of the respective lag phases.

[4] = compound 20 parts, human IAPP 1 part, example in present tense
[5] = 20 to 1 ratio of compound to human IAPP
[6] = IAPP:compound ratios 1:1 to 1:20, pH 7.4, 20 mM Tris, 25° C.

Compound: O=C(O)Cc1ccc(-c2ccccc2)c(F)c1 [2-(2-Fluorobiphenyl-4-yl)acetic acid, 2-(2-fluorobiphenyl-4-yl)acetic acid]
effect on islet amyloid formation (thioflavin-T time course) (human IAPP): accelerates islet amyloid formation | presence and toxic effects of intermediates of amyloid formation (rat INS-1 beta-cells; [4]): reduces the presence and toxic effects of intermediates of amyloid formation

Compound: O=C(O)Cc1ccc(-c2ccccc2)cc1 [2-(Biphenyl-4-yl)acetic acid, 2-(biphenyl-4-yl)acetic acid]
effect on islet amyloid formation (thioflavin-T time course) (human IAPP): accelerates islet amyloid formation | presence and toxic effects of intermediates of amyloid formation (rat INS-1 beta-cells; [4]): reduces the presence and toxic effects of intermediates of amyloid formation

Compound: CC(C(=O)O)c1ccc(-c2ccc(O)cc2)c(F)c1 (stereo not shown) [OH-flurbiprofen, 2-(2-fluoro-4′-hydroxybiphenyl-4-yl) propanoic acid]
effect on human IAPP amyloid formation (thioflavin-T time course) (human IAPP; [5]): highest rate of acceleration of amyloid formation | effect on human IAPP amyloid formation (thioflavin-T time course) (human IAPP; [6]): accelerated islet amyloid formation; also recorded: accelerates amyloid formation by human islet amyloid polypeptide | presence and toxic effects of intermediates of amyloid formation (rat INS-1 beta-cells; human IAPP with compound): reduced the presence and toxic effects of intermediates of amyloid formation in a dose dependent fashion

Compound: CC[C@H](C)[C@H](NC(=O)[C@H](C)NC(=O)CNC(=O)[C@H](Cc1ccccc1)NC(=O)[C@H](CC(N)=O)NC(=O)[C@H](CC(N)=O)NC(=O)CNC(=O)[C@H](CO)NC(=O)[C@H](Cc1c[nH]cn1)NC(=O)[C@@H](NC(=O)[C@H](CC(C)C)NC(=O)[C@H](Cc1ccccc1)NC(=O)[C@H](CC(N)=O)NC(=O)[C@H](C)NC(=O)[C@H](CC(C)C)NC(=O)[C@H](CCCNC(=N)N)NC(=O)[C@H](CCC(N)=O)NC(=O)[C@@H](NC(=O)[C@H](C)NC(=O)[C@@H]1CSSC[C@H](NC(=O)[C@@H](N)CCCCN)C(=O)N[C@@H](CC(N)=O)C(=O)N[C@@H]([C@@H](C)O)C(=O)N[C@@H](C)C(=O)N[C@@H]([C@@H](C)O)C(=O)N1)[C@@H](C)O)C(C)C)C(=O)N[C@@H](CC(C)C)C(=O)N[C@@H](CO)C(=O)N[C@@H](CO)C(=O)N[C@H](C(=O)N[C@@H](CC(N)=O)C(=O)N[C@H](C(=O)NCC(=O)N[C@@H](CO)C(=O)N[C@@H](CC(N)=O)C(=O)N[C@H](C(=O)N[C@@H](Cc1ccc(O)cc1)C(N)=O)[C@@H](C)O)C(C)C)[C@@H](C)O [S20G-IAPP]
onset and duration of toxicity relative to wild type human IAPP [3]: more rapid onset and shorter duration of toxicity

Compound: CC[C@H](C)[C@H](NC(=O)[C@H](C)NC(=O)CNC(=O)[C@H](Cc1ccccc1)NC(=O)[C@H](CC(N)=O)NC(=O)[C@H](CC(N)=O)NC(=O)[C@H](CCCCN)NC(=O)[C@H](CO)NC(=O)[C@H](Cc1c[nH]cn1)NC(=O)[C@@H](NC(=O)[C@H](CC(C)C)NC(=O)[C@H](Cc1ccccc1)NC(=O)[C@H](CC(N)=O)NC(=O)[C@H](C)NC(=O)[C@H](CC(C)C)NC(=O)[C@H](CCCNC(=N)N)NC(=O)[C@H](CCC(N)=O)NC(=O)[C@@H](NC(=O)[C@H](C)NC(=O)[C@@H]1CSSC[C@H](NC(=O)[C@@H](N)CCCCN)C(=O)N[C@@H](CC(N)=O)C(=O)N[C@@H]([C@@H](C)O)C(=O)N[C@@H](C)C(=O)N[C@@H]([C@@H](C)O)C(=O)N1)[C@@H](C)O)C(C)C)C(=O)N[C@@H](CC(C)C)C(=O)N[C@@H](CO)C(=O)N[C@@H](CO)C(=O)N[C@H](C(=O)N[C@@H](CC(N)=O)C(=O)N[C@H](C(=O)NCC(=O)N[C@@H](CO)C(=O)N[C@@H](CC(N)=O)C(=O)N[C@H](C(=O)N[C@@H](Cc1ccc(O)cc1)C(N)=O)[C@@H](C)O)C(C)C)[C@@H](C)O [S20K-human IAPP]
onset and duration of toxicity relative to wild type human IAPP [3]: increased the duration of toxicity

Continued, in another order:

effect on islet amyloid formation (thioflavin-T time course) (human IAPP): accelerates islet amyloid formation
Compound: C[C@H](C(=O)O)c1ccc(-c2ccccc2)cc1 [(S)-2-(Biphenyl-4-yl)propanoic acid, (S)-2-(biphenyl-4-yl)propanoic acid]
presence and toxic effects of intermediates of amyloid formation (rat INS-1 beta-cells; [4]): reduces the presence and toxic effects of intermediates of amyloid formation

inhibition of amyloid formation by human IAPP (amylin) (human IAPP): do not inhibit amylin amyloid formation
Compound: CC(C(=O)O)c1cccc(C(=O)c2ccccc2)c1 (stereo not shown) [Ketoprofen]
inhibition of amylin amyloid formation judged by TEM (human IAPP (amylin); equimolar to 20-fold excess of Ketoprofen, 42 hours, amylin 16 μM): not an amylin amyloid inhibitor; also recorded: does not inhibit amyloid formation by amylin | disaggregation of pre-formed amylin amyloid fibrils [1]: unable to disassemble pre-formed amylin amyloid

inhibition of amyloid formation by human IAPP (amylin) (human IAPP): no inhibition of amyloid | amyloid fibrils by TEM in presence of NSAID (human IAPP (amylin); 20-fold excess of NSAID over human IAPP, end of kinetic experiment): no changes in amyloid formation
Compound: COc1ccc2cc([C@H](C)C(=O)O)ccc2c1 [Naproxen]

effect on human IAPP amyloid formation (thioflavin-T time course) (human IAPP; [5]): accelerated islet amyloid formation | effect on human IAPP amyloid formation (thioflavin-T time course) (human IAPP; 20 to 1 ratio of compound to human IAPP, listed as R flurbiprofen): equally effective
Compound: C[C@@H](C(=O)O)c1ccc(-c2ccccc2)c(F)c1 [R-flurbiprofen]
presence and toxic effects of intermediates of amyloid formation (rat INS-1 beta-cells; human IAPP with compound): reduced the presence and toxic effects of intermediates of amyloid formation | acceleration of amyloid formation and reduction of toxic effects of intermediates, WT human IAPP versus mutant IAPP [2]: about equally

effect on human IAPP amyloid formation (thioflavin-T time course) (human IAPP; 20 to 1 ratio of compound to human IAPP, listed as S flurbiprofen): equally effective | effect on human IAPP amyloid formation (thioflavin-T time course) (human IAPP; 20 to 1 ratio of compound to human IAPP, listed as S-flurbiprofen): accelerated islet amyloid formation
Compound: S-Flurbiprofen
effect on human IAPP amyloid formation (thioflavin-T time course) (human IAPP; [6]): accelerates amyloid formation by human IAPP in a dose dependent manner | presence and toxic effects of intermediates of amyloid formation (rat INS-1 beta-cells; human IAPP with compound): reduced the presence and toxic effects of intermediates of amyloid formation | acceleration of amyloid formation and reduction of toxic effects of intermediates, WT human IAPP versus mutant IAPP [2]: about equally
